From patent US7897772B2, “Acid addition salt of irinotecan” (priority 2004, dated 2011)
Where a name gives a salt, the structure may show the parent alone.

How the values were obtained:
[1] = Dissolution of irinotecan acid addition salts in water at 100 mg/mL at room temperature and state of the solution after 6 days of stirring (Example 1); type: physicochemical; conditions: for State of the Solution after Day 6: 100 mg/mL aqueous solution, membrane-filtered, stirred at room temperature (25° C.) for 6 days, visually observed; for Dissolution of the salt in water at room temperature: salt content adjusted to 100 mg/mL, no heating
Description: To an aqueous suspension of irinotecan (1-ethyl-10-[4-(1-piperidino)-1-piperidino]carbonyloxycamptothecin) produced through the method disclosed in Patent Document 1, each acid species was added, to thereby produce a corresponding irinotecan acid addition salt. The irinotecan acid addition salt content was adjusted to 100 mg/mL. […] Each of the aqueous solutions employing sulfuric acid, phosphoric acid methanesulfonic acid, citric acid, maleic acid, and succinic acid, respectively, was filtered by a membrane filter, and the filtrate was stirred at room temperature (25° C.). After continuous stirring for 6 days, the aqueous solution was visually observed so as to evaluate the state of the solution.

[2] = Three-month room-temperature storage of 20, 30 and 40 mg/mL aqueous solutions, visual observation (Example 5); type: physicochemical; conditions: three months
From the text: The filtrate was allowed to stand at room temperature for three months, and the aqueous solution after storage was visually observed so as to evaluate the solution state.

[3] = Peroral absorbability in beagles: plasma irinotecan level and pharmacokinetic analysis (Example 6); type: in vivo
From the text: To each beagle, a solid chow (about 350 g) was fed once a day at around 3 p.m., and the unconsumed chow was removed at around 9 a.m. on the following day, except that on the day before the day of administration the unconsumed chow was removed about two hours after feeding. On the day of administration, blood was drawn three hours after administration and the chow was fed after blood collection. On the day after the day of administration, the unconsumed chow was removed at 9 a.m.
After administration, tap water (about 20 mL) was fed to the mouth of the beagle by use of an injection syringe.
The thus-collected blood samples were dispensed into 1.5-mL tubes, to which heparin sodium (20 μL, 20 units) had been added in advance and which had been dried under nitrogen flow (tubes employed for the first administration were not dried). The samples were centrifuged (4° C., about 13,000×g, one minute) to thereby obtain plasma.
The lower quantification limit was […] plasma.
Non-compartmental analysis of the obtained data was performed by use of a WinNonlin Ver4.1. Data of the following pharmacokinetic parameters were obtained.
Final phase half-time (T1/2),
Time to reach maximum plasma level (Tmax),
Maximum plasma level (Cmax),
Area under time-level curve to infinite time (AUC0-inf),
Bioavailability (BA), wherein
Mean absorption time (MAT), wherein
MAT(h)=(mean residence time (MRT0-inf) after oral administration)−(mean residence time (MRT0-inf) after intravenous injection).

[4] = peroral capsule, 10 mg/kg as irinotecan, 20 min after administration
[5] = peroral, 10 mg/kg as irinotecan
[6] = peroral, 10 mg/kg as irinotecan, mean ± SD (number of samples in parentheses), 10 mg/kg
[7] = peroral, 10 mg/kg as irinotecan, mean ± SD (number of samples in parentheses), listed as irinotecan methanesulfonic acid addition salt, 10 mg/kg
[8] = peroral, 10 mg/kg as irinotecan, mean ± SD (number of samples in parentheses), listed as irinotecan sulfuric acid addition salt, 10 mg/kg

**Q.** With `CCc1c2c(nc3ccc(OC(=O)N4CCC(N5CCCCC5)CC4)cc13)-c1cc3c(c(=O)n1C2)COC(=O)[C@]3(O)CC` [Irinotecan citric acid addition salt, irinotecan citric acid salt] as the molecule, how does the “State of the Solution after Day 6” value [1] read?
**A.** No crystal deposited

**Q.** What about the “Dissolution of the salt in water at room temperature” value (“Dissolution of the salt in water” for short) ([1]; listed as citric acid) of the same molecule?
**A.** dissolved in water at room temperature

**Q.** For `CCc1c2c(nc3ccc(OC(=O)N4CCC(N5CCCCC5)CC4)cc13)-c1cc3c(c(=O)n1C2)COC(=O)C3(O)CC.O=S(=O)(O)O` (stereo not shown) [Sulfuric acid addition salt (2), irinotecan sulfuric acid salt], which “Solution state after storage” value ([2]; 20 mg/mL aqueous solution) is on record?
**A.** −

**Q.** And the “Solution state after storage” value ([2]; 30 mg/mL aqueous solution)?
**A.** −

**Q.** And the “Solution state after storage” value ([2]; 40 mg/mL aqueous solution)?
**A.** −

**Q.** With `CCc1c2c(nc3ccc(OC(=O)N4CCC(N5CCCCC5)CC4)cc13)-c1cc3c(c(=O)n1C2)COC(=O)[C@]3(O)CC` [Irinotecan methanesulfonic acid addition salt] [irinotecan methanesulfonic acid salt] as the molecule, how does the “State of the Solution after Day 6” value [1] read?
**A.** No crystal deposited

**Q.** What about the “Dissolution of the salt in water” value [1] of the same molecule?
**A.** dissolved in water at room temperature

**Q.** And the “Plasma irinotecan level (no mean given)” value ([3]; peroral capsule, 10 mg/kg as irinotecan, 10 min after administration, 10 mg/kg)?
**A.** — (≧3 Beagles of a group consisting of six beagles exhibited a plasma level of ≦5 ng/mL.)

**Q.** What about the “Plasma irinotecan level (no mean given)” value [3, 4] of the same molecule?
**A.** — (≧3 Beagles of a group consisting of six beagles exhibited a plasma level of ≦5 ng/mL.)

**Q.** What about the “Time after administration at which the plasma level reached the maximum (mean profile, text)” value [3, 5] of the same molecule?
**A.** two

**Q.** What about the “AUC0-inf (area under time-level curve to infinite time)” value [3, 6] of the same molecule?
**A.** 17.58 ± 2.08(5)^$ μg · h/mL

**Q.** What about the “Tmax (time to reach maximum plasma level)” value [3, 6] of the same molecule?
**A.** 2.17 ± 0.41(6) h

**Q.** And the “AUC0-inf (area under time-level curve to infinite time)” value [3, 7]?
**A.** 17.68 µg·h/mL

**Q.** What about the “Cmax (maximum plasma level)” value [3, 7] of the same molecule?
**A.** 3470 ng/mL

**Q.** With `CCc1c2c(nc3ccc(OC(=O)N4CCC(N5CCCCC5)CC4)cc13)-c1cc3c(c(=O)n1C2)COC(=O)[C@]3(O)CC` [Irinotecan phosphoric acid addition salt, irinotecan phosphoric acid salt] as the molecule, how does the “Dissolution of the salt in water” value ([1]; listed as phosphoric acid) read?
**A.** dissolved in water at room temperature

**Q.** For `CCc1c2c(nc3ccc(OC(=O)N4CCC(N5CCCCC5)CC4)cc13)-c1cc3c(c(=O)n1C2)COC(=O)[C@]3(O)CC` [irinotecan methanesulfonic acid salt], which bioavailability ([3]; male, beagle, dog, plasma, po, 10 mg/kg, peroral 10 mg/kg as irinotecan, AUC0-inf oral ÷ AUC0-inf intravenous × 100, read-out: BA (bioavailability)) is on record?
**A.** 61 ± 3.84%

**Q.** Which “Solution state after storage” value ([2]; 20 mg/mL aqueous solution) does the source give for `CCc1c2c(nc3ccc(OC(=O)N4CCC(N5CCCCC5)CC4)cc13)-c1cc3c(c(=O)n1C2)COC(=O)[C@]3(O)CC.O=[N+]([O-])O` [Nitric acid addition salt (2), irinotecan nitric acid salt] here?
**A.** −

**Q.** What about the “Solution state after storage” value ([2]; 30 mg/mL aqueous solution) of the same molecule?
**A.** −

**Q.** And the “Solution state after storage” value ([2]; 40 mg/mL aqueous solution)?
**A.** −

**Q.** Which “Dissolution of the salt in water” value ([1]; listed as succinic acid) does the source give for `CCc1c2c(nc3ccc(OC(=O)N4CCC(N5CCCCC5)CC4)cc13)-c1cc3c(c(=O)n1C2)COC(=O)[C@]3(O)CC` [Irinotecan succinic acid addition salt, irinotecan succinic acid salt] here?
**A.** dissolved in water at room temperature

**Q.** With `CCc1c2c(nc3ccc(OC(=O)N4CCC(N5CCCCC5)CC4)cc13)-c1cc3c(c(=O)n1C2)COC(=O)[C@]3(O)CC` [Irinotecan fumaric acid addition salt, reference compound] as the molecule, how does the “Dissolution of the salt in water” value ([1]; listed as fumaric acid) read?
**A.** not dissolved in water at room temperature

**Q.** For `CCc1c2c(nc3ccc(OC(=O)N4CCC(N5CCCCC5)CC4)cc13)-c1cc3c(c(=O)n1C2)COC(=O)[C@]3(O)CC` [Irinotecan (7-ethyl-10-[4-(1-piperidino)-1-piperidino]carboxyoxycamptothecin) hydrochloride, reference compound], which “Dissolution of the salt in water” value ([1]; listed as hydrochloric acid, hydrochloride) is on record?
**A.** not dissolved in water at room temperature

**Q.** What about the concentration at 3 h ([3]; male, beagle, dog, plasma, oral, 10 mg/kg, peroral, 10 mg/kg as irinotecan, 3 h, mean (n=6) ± SD) of the same molecule?
**A.** 2010 ± 450 ng/mL

**Q.** What about the concentration at 4 h ([3]; male, beagle, dog, plasma, oral, 10 mg/kg, peroral, 10 mg/kg as irinotecan, 4 h, mean (n=6) ± SD) of the same molecule?
**A.** 1620 ± 390 ng/mL

**Q.** What about the concentration at 6 h ([3]; male, beagle, dog, plasma, oral, 10 mg/kg, peroral, 10 mg/kg as irinotecan, 6 h, mean (n=6) ± SD) of the same molecule?
**A.** 947 ± 363 ng/mL

**Q.** What about the concentration at 8 h ([3]; male, beagle, dog, plasma, oral, 10 mg/kg, peroral, 10 mg/kg as irinotecan, 8 h, mean (n=6) ± SD) of the same molecule?
**A.** 538 ± 264 ng/mL

**Q.** And the concentration at 12 h ([3]; male, beagle, dog, plasma, oral, 10 mg/kg, peroral, 10 mg/kg as irinotecan, 12 h, mean (n=6) ± SD)?
**A.** 179 ± 138 ng/mL

**Q.** And the AUC(0-inf) ([3]; male, beagle, dog, plasma, po, 10 mg/kg, peroral, 10 mg/kg as irinotecan, mean ± SD (number of samples in parentheses), read-out: AUC0-inf (area under time-level curve to infinite time))?
**A.** 11200 ng·h/mL

**Q.** And the Cmax ([3]; male, beagle, dog, plasma, po, 10 mg/kg, peroral, 10 mg/kg as irinotecan, mean ± SD (number of samples in parentheses), read-out: Cmax (maximum plasma level))?
**A.** 2030 ng/mL

**Q.** What about the Tmax ([3]; male, beagle, dog, plasma, po, 10 mg/kg, peroral, 10 mg/kg as irinotecan, mean ± SD (number of samples in parentheses), read-out: Tmax (time to reach maximum plasma level)) of the same molecule?
**A.** 2.83 ± 0.41 h

**Q.** What about the “BA (bioavailability)” value ([3]; peroral 10 mg/kg as irinotecan, AUC0-inf oral ÷ AUC0-inf intravenous × 100, listed as irinotecan hydrochloric acid addition salt, hydrochloride) of the same molecule?
**A.** 48.80%

**Q.** And the “Plasma irinotecan level (no mean given)” value ([3]; peroral capsule, 10 mg/kg as irinotecan, 10 min after administration, hydrochloride, 10 mg/kg)?
**A.** —^b) (≧3 Beagles of a group consisting of six beagles exhibited a plasma level of ≦5 ng/mL.)

**Q.** What about the “Plasma irinotecan level (no mean given)” value [3, 4] of the same molecule?
**A.** — (≧3 Beagles of a group consisting of six beagles exhibited a plasma level of ≦5 ng/mL.)

**Q.** For `CCc1c2c(nc3ccc(OC(=O)N4CCC(N5CCCCC5)CC4)cc13)-c1cc3c(c(=O)n1C2)COC(=O)[C@]3(O)CC` [Irinotecan maleic acid addition salt, irinotecan maleic acid salt], which “Dissolution of the salt in water” value ([1]; listed as maleic acid) is on record?
**A.** dissolved in water at room temperature

**Q.** For `CCc1c2c(nc3ccc(OC(=O)N4CCC(N5CCCCC5)CC4)cc13)-c1cc3c(c(=O)n1C2)COC(=O)[C@]3(O)CC.O=[N+]([O-])O` [Nitric acid addition salt (1), irinotecan nitric acid salt], which “Solution state after storage” value ([2]; 20 mg/mL aqueous solution) is on record?
**A.** −

**Q.** And the “Solution state after storage” value ([2]; 30 mg/mL aqueous solution)?
**A.** −

**Q.** What about the “Solution state after storage” value ([2]; 40 mg/mL aqueous solution) of the same molecule?
**A.** +

**Q.** Which results are given for `CCc1c2c(nc3ccc(OC(=O)N4CCC(N5CCCCC5)CC4)cc13)-c1cc3c(c(=O)n1C2)COC(=O)[C@]3(O)CC` [Irinotecan sulfuric acid addition salt, irinotecan sulfuric acid salt]?
**A.** State of the Solution after Day 6 [1]: No crystal deposited; Dissolution of the salt in water at room temperature [1]: dissolved in water at room temperature; concentration at 10 min ([3]; male, beagle, dog, plasma, oral, 10 mg/kg, peroral capsule, 10 mg/kg as irinotecan, 10 min after administration, mean (n=6) ± SD): 126 ± 112 ng/mL; concentration at 20 min ([3]; male, beagle, dog, plasma, oral, 10 mg/kg, peroral capsule, 10 mg/kg as irinotecan, 20 min after administration, mean (n=6) ± SD): 1560 ± 1550 ng/mL; concentration at 20 min ([3]; male, beagle, dog, plasma, oral, 10 mg/kg, peroral, 10 mg/kg as irinotecan, twenty minutes after administration): 1560 ng/mL; BA (bioavailability) ([3]; peroral 10 mg/kg as irinotecan, AUC0-inf oral ÷ AUC0-inf intravenous × 100): 70.14%; Time after administration at which the plasma level became measurable [3, 5]: 10 min; Plasma irinotecan level maintained ([3]; peroral, 10 mg/kg as irinotecan, from hour 1 to hour 3): ≥ 3 µg/mL; AUC0-inf (area under time-level curve to infinite time) [3, 6]: 18.54 ± 1.59(5)^$ μg · h/mL; Tmax (time to reach maximum plasma level) [3, 6]: 2.33 ± 0.52(6) h; AUC0-inf (area under time-level curve to infinite time) [3, 8]: 13.54 µg·h/mL; Cmax (maximum plasma level) [3, 8]: 3670 ng/mL

**Q.** For `CCc1c2c(nc3ccc(OC(=O)N4CCC(N5CCCCC5)CC4)cc13)-c1cc3c(c(=O)n1C2)COC(=O)[C@]3(O)CC.O=P(O)(O)O` [Phosphoric acid addition salt (2), irinotecan phosphoric acid salt], which “Solution state after storage” value ([2]; 20 mg/mL aqueous solution) is on record?
**A.** −

**Q.** What about the “Solution state after storage” value ([2]; 30 mg/mL aqueous solution) of the same molecule?
**A.** −

**Q.** And the “Solution state after storage” value ([2]; 40 mg/mL aqueous solution)?
**A.** −
